We go through 87 molecules from a melting point compilation (Tetko et al.; mined from patent text by program, amines drawn as free bases though some values may be those of a salt).

Consider `COc1cc(C)nc(-c2cnnn2NS(=O)(=O)c2ccccc2Cl)n1`, for which the melting point (commonly the temperature of the solid-liquid transition) is 139 °C.

For the molecule `CCn1c(=O)c(C(=O)O)c(-c2ccccc2Cl)c2cc(C)c(C)cc21`, the melting point was in the range of 168 to 170 °C.

In turn, `CN1C(=O)CCC1(O)c1ccc(Cl)c(N)c1` (configuration not stated) yielded a melting point of 154 °C.

`COc1ccc(-c2c(C)ccn2-c2ccc(S(C)(=O)=O)cc2)cc1`: the melting point is 131 to 132 °C.

Consider `O=C(Cl)N1CCC(Oc2ccc(F)c(Cl)c2)C1` (configuration not stated), for which the melting point was 63 to 65 °C.

In the case of `CC#CCOc1ccc(S(=O)(=O)C(C(=O)O)C2CCN(C(=O)c3ccccc3)CC2)cc1` (configuration not stated), the melting point is 90 °C.

`CCCCOc1ccc2cc(C(=O)O)ccc2c1` came in with a melting point of 175 to 180 °C.

With `Cc1nc(N2CCN(CC3CC3)C2=O)sc1C(=O)NCc1ccncn1`, the melting point lay in the range of 188 to 191 °C.

`COc1ccc(C(=O)Cc2cc(OC)cc(Br)c2OC)cc1` had a melting point of 91 to 93 °C.

Molecule `Nc1ccc(Oc2ccc3ccc(Oc4ccc(N)c(O)c4)cc3c2)cc1O` returned a melting point of 201 to 210 °C.

The molecule `NS(=O)(=O)C(F)(F)C(F)(F)C(F)(F)C(F)(F)C(F)(F)C(F)(F)F` came in with a melting point of 165 to 168 °C.

For `CS(=O)(=O)c1ccc(-n2nc(C(F)(F)F)cc2-c2ccc(-c3ccsc3)cc2)cc1F`, the melting point fell in the range of 72 to 74 °C.

With `C#Cc1ccc(-c2ccc(Br)cc2)cc1`, the melting point was 145 to 150 °C.

`O=c1ccc2cnccc2[nH]1` had a melting point of 295 to 297 °C.

Consider `COc1ccc(-c2cc(=Nc3c(C)cc(C)cc3C)n(C)c(NNC=O)n2)cc1OC`, for which the melting point was in the range of 136 to 143 °C.

Turning to `CCc1nc2c(s1)CC(COS(=O)(=O)c1ccc(C)cc1)CC2` (configuration not stated), the melting point is 54 to 56 °C.

On to `Cc1cc(Oc2ncc(C(F)(F)F)cc2Cl)nn1C(=O)NC1CCCCC1`, for which the melting point was 69 to 71 °C.

Regarding `CC1=CC(C)(C)N2C(=O)C(=O)c3cccc1c32`, the melting point was in the range of 170 to 176 °C.

`COC(=O)C(Oc1ccc(C2CCCCC2)cc1)c1ccc(Oc2ccc(Cl)cc2)cc1` (configuration not stated) had a melting point of 122 to 124 °C.

As to `CC1(C)C(NN)=Nc2ccccc2C1(O)c1ccccc1` (configuration not stated), the melting point is 195 to 196 °C.

Turning to `Cc1cccc(C2C(C#N)=C(C3CC3)Nc3n[nH]cc32)c1[N+](=O)[O-]` (configuration not stated), the melting point turned out to be 265 °C.

`Cc1ccc(CCOc2ccc(NC(=O)N(C)C)cc2)nc1` showed a melting point of 148 to 150 °C.

`CCOC(=O)c1ccc(-c2nc(COc3ccc(COc4nn(-c5ccccc5)cc4/C=C/P(=O)(OCC)OCC)cc3OC)c(C)o2)s1` displayed a melting point of 114 to 115 °C.

Turning to `CC1CC(=O)NN=C1c1ccc(Nc2nc(=O)c3ccccc3[nH]2)cc1` (configuration not stated), the melting point is 313 to 319 °C.

Turning to `O=S1(=O)NC(C2=CCCCC2)Nc2cc(Cl)ccc21` (configuration not stated), the melting point was in the range of 252 to 254 °C.

On to `COc1c(CC#N)c2c(c3c1OC(C)(C)C3)C(c1ccccc1)=NC(C)(C)C2`, for which the melting point lay in the range of 95 to 96 °C.

On to `CC(=O)c1cc(Br)c(OP(=O)(O)O)c(Br)c1`, for which the melting point lay within 149 to 154 °C.

For the molecule `CCOC(=O)CCc1cc(OCC(=O)O)nn1Cc1ccc(Cl)cc1Cl`, the melting point was 129 to 131 °C.

Regarding `C=CCn1c2ccccc2c2c(N)c(C(=O)OC)c(C)nc21`, the melting point lay in the range of 78 to 85 °C.

The molecule `O=C(NCCO)/C(=C/c1ccc(OC(F)F)cc1)NC(=O)c1ccc(OCCc2ccccc2)cc1` had a melting point of 155 to 157 °C.

`Cc1ccc(N(C)S(=O)(=O)c2cccnc2Cl)c2[nH]c(C3=NCC(CN4CCOCC4)S3)cc12` (configuration not stated): the melting point lay in the range of 151 to 153 °C.

As for `CC(=O)N(C)c1c(C(=O)c2cccc(Cl)c2)[nH]c2cc(Cl)ccc12`, the melting point lay within 202 to 203 °C.

Regarding `CC(C)(S)CNCc1ccc(O)cc1`, the melting point was in the range of 85 to 87 °C.

`CCCCNc1cc(CN(Cc2ccccc2)C(=O)OCC)cc(S(N)(=O)=O)c1Oc1ccccc1` registered a melting point of 82 to 83 °C.

In the case of `C[C@@H](S)[C@](O)(Cn1ccnc1)c1ccc(F)cc1F`, the melting point lay within 125 to 135 °C.

`c1ccc(COc2cccn3ccnc23)cc1` displayed a melting point of 110 °C.

As to `COC(=O)c1cccc(OC(F)(F)C(F)Br)c1` (configuration not stated), the melting point was in the range of 88 to 90 °C.

The molecule `CSc1ccc(-n2c(-c3ccccc3)nc(SC)c(C#N)c2=O)cc1` yielded a melting point of 204 to 205 °C.

Molecule `O=S(=O)(Nc1ccc2c(OCc3ccc(-c4ccccc4)cc3Cl)cccc2c1)C(F)(F)F` showed a melting point of 131 to 134 °C.

For the molecule `O=C(O)CCc1ccnc(-c2nc(=O)c3ccc(Cl)cc3s2)c1`, the melting point lay in the range of 263 to 264 °C.

As for `O=C(c1cccc(C(F)(F)F)c1)c1cc2c(F)ccc(Br)c2o1`, the melting point lay within 114 to 115 °C.

Take `COC(=O)c1cccc(COC(OC(C)=O)C(=O)c2ccccc2)c1` (configuration not stated): the melting point was in the range of 86 to 87 °C.

`CCN1C(=O)C(C(=O)Nc2ccc(Cl)cc2)c2cc3c(cc21)CCO3` (configuration not stated) yielded a melting point of 175 to 176 °C.

Consider `CC(C)(C)OC(=O)Nc1cccc(C2CCN(c3nc4c(cc3F)c(=O)c(C(=O)O)cn4C3CC3)C2)c1` (configuration not stated), for which the melting point lay in the range of 210 to 211 °C.

Consider `COC(=O)c1nc2ccc(C=O)cc2cc1C`, for which the melting point fell in the range of 118 to 121 °C.

With `CCCCCCCCCCCCCCOc1ccc(C(=O)OC)cc1Cl`, the melting point lay within 42 to 43 °C.

In the case of `COc1ccc(S(=O)(=O)N(CC#N)c2ccc(Cl)cc2C(=O)c2ccccc2Cl)cc1OC`, the melting point was determined as 164 °C.

Regarding `CN1CCN(c2ccc(F)cc2C=C2CCCN(c3ccc(F)c(F)c3)C2=O)CC1`, the melting point lay within 168 to 170 °C.

In turn, `CCOc1ccnc(Cl)n1` gave a melting point of 30 to 31 °C.

On to `Cc1cc(C)n(-c2ccc(N(C)N)nn2)n1`, for which the melting point lay in the range of 93 to 94 °C.

For `CCc1[nH]n(C2CCCC2)c2nc(COS(C)(=O)=O)nc(=O)c1-2`, the melting point lay within 138 to 140 °C.

Molecule `O=C(O)C=CC(=O)c1ccccc1[N+](=O)[O-]` came in with a melting point of 153 to 158 °C.

On to `COc1cc2c(c(OC)c1)C1CCCCC1C(=O)C2` (configuration not stated), for which the melting point is 130 to 131 °C.

With `CS(=O)(=O)Nc1ccc(NC(=O)CN2CCC(Cc3ccccc3)CC2)cc1`, the melting point is 102 to 106 °C.

Molecule `CSC[C@H](C)NC(=O)c1c(I)cccc1C(=O)O` gave a melting point of 132 to 134 °C.

Consider `CCOP(=O)(Cc1ccc(NC(=O)CCCc2cnoc2-c2ccccc2)cc1)OCC`, for which the melting point was 128 to 129 °C.

`COC(=O)c1ccc(NC(=O)C=C(C)c2cc(C(C)C)c(C(C)C)o2)cc1` gave a melting point of 167 to 169 °C.

Take `O=C(NO)c1ccc(C(=O)NC/C=C/c2ccccc2)cc1`: the melting point is 169 to 170 °C.

For the molecule `O[C@@H](c1c[nH]nc1-c1ccccc1)[C@H](CCN1CCC(O)(c2ccccc2)CC1)c1ccc(Cl)c(Cl)c1` (racemic), the melting point lay in the range of 133 to 135 °C.

`CCOC(=O)c1ccc(CNC(=O)c2csc3nc(C(=O)OCC)[nH]c(=O)c23)cc1` had a melting point of 227 to 228 °C.

With `N#Cc1cnc2sc(Br)cc2c1Cl`, the melting point was 158 to 166 °C.

`CCOc1cccc(C(=O)N2CCc3cc(O)ccc3C2)c1` gave a melting point of 150 to 151 °C.

`CCOC(=O)C1=C(C)N=C(SCc2ccccc2)N(C(=O)OCC)C1c1ccccc1C(F)(F)F` (configuration not stated): the melting point lay in the range of 85.5 to 87.5 °C.

As for `CC(CO)CCCC(C)C1CCC2C3CC=C4CCCC(O)C4(C)C3CCC12C` (configuration not stated), the melting point lay in the range of 158 to 160 °C.

Molecule `C[C@@H](NC(=O)c1cnn(-c2ccc(C(F)(F)F)cc2)c1C(F)(F)F)[C@](O)(Cn1cncn1)c1ccc(F)cc1F` came in with a melting point of 141 to 143 °C.

The molecule `CC(=O)N1N=C(c2ccc([N+](=O)[O-])cc2)c2cc3c(cc2CC1C)OCO3` (configuration not stated) showed a melting point of 140 to 142 °C.

As for `CN(C)c1ncc(-c2cccc(Nc3ccc(-n4cccc4)cc3[N+](=O)[O-])c2)cn1`, the melting point was 166 to 168 °C.

Take `OC1CCCN2CCCCC12` (configuration not stated): the melting point worked out at 70 °C.

In the case of `Cn1cc(-c2cccc(Br)c2)c(=O)c(-c2cccc(C(F)(F)F)c2)c1`, the melting point is 151 to 153 °C.

With `CN(C)C(=O)Cc1cccc(NC(=O)N(C)C)c1`, the melting point lay in the range of 80 to 81 °C.

`O=C(NCC12CC3CC(CC(C3)C1)C2)c1cc(-c2ccc(Cl)c(C(=O)O)n2)ccc1Cl` returned a melting point of 154 to 159 °C.

As to `Nc1ncccc1OCc1ccccc1Br`, the melting point was 99 to 100 °C.

Turning to `CCCN(CCC)c1c(CC)nn2c(-c3c(C)cc(C)cc3OC)cccc12`, the melting point was in the range of 72.3 to 74.6 °C.

Regarding `Cc1ccccc1-c1cc(N2CCS(=O)(=O)CC2)ncc1N(C)C(=O)C(C)(C)c1cc(C(F)(F)F)cc(C(F)(F)F)c1`, the melting point is 200 to 201 °C.

For the molecule `FC(F)(F)c1cccc2c1c(N1CCOCC1)nc1c(-c3nc(C4CC4)no3)ncn12`, the melting point was 197 to 199 °C.

`O=C(NN1CCCCC1)c1cc(Oc2c(F)cc(C(F)(F)F)cc2Cl)ccc1[N+](=O)[O-]` registered a melting point of 65 to 68 °C.

`Cn1cncc1C(c1ccc(Cl)cc1)c1ccc2c(c1)c(-c1nc(-c3ccccc3)cs1)cc(=O)n2C` (configuration not stated) showed a melting point of 171 °C.

`C=CCNc1nc(NC(=O)N2CCCC2)c2scc(C)c2n1` had a melting point of 98 to 101 °C.

With `CCCc1nc2cc(C(=O)c3ccccc3)ccc2n1Cc1ccc(C(=O)OCC)cc1`, the melting point lay in the range of 126 to 128 °C.

Take `O=C(Nc1nccs1)c1ccc(-c2ccc3nnn(Cc4ccc5ncccc5c4)c3n2)cc1F`: the melting point was 204 to 206 °C.

`O=C(NC(=O)c1ccccc1F)NC1CN2CCC1CC2` (configuration not stated) registered a melting point of 187 to 188 °C.

In turn, `Cc1ccc(F)c([Si](C)(C)C)c1C#N` registered a melting point of 71 to 73 °C.

The molecule `[N-]=[N+]=C1c2ccccc2-c2ccc(F)cc21` yielded a melting point of 89 to 90 °C.

The molecule `CCN(CC)CCOc1ccc(Nc2ncc3c(n2)N(c2ccccc2)C(=O)N(c2c(Cl)cccc2Cl)C3)cc1` showed a melting point of 162 to 163 °C.

The molecule `COc1ccc(CNc2ccc(C#N)cc2)cc1OC` displayed a melting point of 150 °C.

Molecule `CC(O)COc1ccc(-c2ccc(C(CC3CCOCC3)c3ccc(S(=O)(=O)C4CC4)cc3)[nH]2)nc1` (configuration not stated) returned a melting point of 116 to 118 °C.

As to `CNCC1CN(c2c(F)cc3c(=O)c(C(=O)O)cn(C4CC4)c3c2F)CCO1` (configuration not stated), the melting point was in the range of 257 to 259 °C.
